Source: patent US20250152685A1, “METHOD OF MAKING A PERSONALIZED CANCER VACCINE” (FLOW PHARMA, INC., priority 2019, published 2025)

Molecular target: DRB3*0202 (Homo sapiens, UniProt P01903+P79483, A212P/D57E/F66Y/L67A/R103Q/R218S/R40L/S89Y/T80R/V86D/Y55F/Y59H)
Assay: peptide affinity binding assay (in-vitro peptide-MHC binding affinity)
Conditions: PADRE and DRB3*0202

Chain of DRB3*0202 (P01903 26-254 limits assumed): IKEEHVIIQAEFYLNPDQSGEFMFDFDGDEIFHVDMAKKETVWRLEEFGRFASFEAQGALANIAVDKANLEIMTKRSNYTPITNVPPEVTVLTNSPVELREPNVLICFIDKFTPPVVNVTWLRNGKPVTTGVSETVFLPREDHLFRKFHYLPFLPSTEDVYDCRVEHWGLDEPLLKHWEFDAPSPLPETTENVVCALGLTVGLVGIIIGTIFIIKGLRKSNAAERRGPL
Chain of DRB3*0202 (P79483 30-266 R40L/Y55F/D57E/Y59H/F66Y/L67A/T80R/V86D/S89Y/R103Q/A212P/R218S limits assumed): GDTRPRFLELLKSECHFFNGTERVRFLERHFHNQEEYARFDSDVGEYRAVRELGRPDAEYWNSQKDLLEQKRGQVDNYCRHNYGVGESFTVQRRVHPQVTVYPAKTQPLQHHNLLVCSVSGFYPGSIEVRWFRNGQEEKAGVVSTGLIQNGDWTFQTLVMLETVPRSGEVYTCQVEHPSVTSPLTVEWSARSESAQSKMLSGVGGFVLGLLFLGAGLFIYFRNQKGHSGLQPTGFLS

## CC(C)C[C@H](NC(=O)[C@@H](NC(=O)[C@H](Cc1c[nH]c2ccccc12)NC(=O)[C@H](C)NC(=O)[C@H](C)NC(=O)[C@@H](NC(=O)[C@H](Cc1ccccc1)NC(=O)[C@H](CCCCN)NC(=O)[C@H](C)N)C(C)C)[C@@H](C)O)C(=O)N[C@@H](CCCCN)C(=O)N[C@@H](C)C(=O)N[C@@H](C)C(=O)N[C@@H](C)C(=O)O [PADRE]
  peptide-MHC binding affinity before and after the addition of an infrared fluorophore ligand: essentially unchanged
